Reference: patent US20080300298A1, “Honokiol Derivates For the Treatment of Proliferative Disorders” (priority 2005, published 2008)

What was measured:
[1] = system: caspases, PARP, AIF in MM.1S cells; assay: Western blotting of apoptotic pathway; format: cell-based, human; conditions: 10 ug/ml
[2] = system: MM.1S cells; assay: combination with bortezomib; format: cell-based, human
Description: Assessment of HNK-induced cytotoxicity against patient MM cells: Cytotoxicity of HNK against fresh MM cells was determined as previously determined, see, for example, Mitsiades et al Cancer Cell. 2004; 5:221-230. Fresh MNCs separated from bone marrow samples derived from patients with MM were incubated with PE-conjugated anti-CD138 antibody and/or FITC-conjugated anti-CD38 antibody (BD Biosciences, San Diego, Calif.) for 30 minutes on ice and washed, followed by analysis using EPICS XL flow cytometer (Beckman Coulter, Hialeah, Fla.). A CD38^high fraction enriched for MM cells was determined in side and forward scatter panel in each case. The expression of CD138 on gated cells was also evaluated. After HNK-treatment for 48 h, cells were harvested and percentage of CD38^high cells with or without HNK-treatment was evaluated. […] Cells were stained with propidium iodide (PI; 50 μg/mL; Sigma, St Louis, Mo.), and cell cycle profile was determined by using the program M software on an EPICS XL flow cytometer (Beckman Coulter, Hialeah, Fla.). […] Fluorescence intensity of TUNEL and APO 2.7 staining was determined using on EPICS XL flow cytometer. Cytotoxicity was determined by trypan blue exclusion assay. […] Cell growth and induction of apoptosis were determined both by colorimetric assay and now cytometric detection of APO2.7 after 48 h treatment. […] DNA synthesis was measured by [^3H]-thymidine uptake. […]

[3] = system: microvascular endothelial cells; assay: endothelial proliferation with TRAIL antibody; format: cell-based; conditions: 0, 1, 6 or 9 μg/ml, 48 h
Description: 10^4/well microvascular endothelial cells were cultured in 24-well plates for 24 h. The next day, cells were washed by PBS and pretreated with 0.5 ml/well fresh MEC medium with 0, 1, 6, or 9 μg/ml honokiol for 30 min before addition of TRAIL or isotype control antibody (30 μg/well). Cells were incubated for 48 h after the addition of reagents and were counted with a Coulter Counter. The green bars represent endothelial cells treated with honokiol alone, the dark blue bars represent cells treated with honokiol and TRAIL antibody, and the light blue bars represent cells treated with honokiol and isotype control antibody. The differences in honokiol-treated endothelium in the presence or absence of TRAIL antibody are significant (p<0.05).

[4] = system: rat papillary muscles; assay: glucose uptake by insulin
[5] = system: MCF-7 cells; assay: Cell cycle assay (PI); format: cell-based; conditions: 24 hours (control 26%)
Description: Cell cycle assays: 5×10^6 cells were cultured in the appropriate culture media containing 10% FCS, and treated with either control vehicle or various concentrations of HNK as indicated for 24 h. Following treatment, the cells were harvested, fixed in methanol and stained with propidium iodide (PI, Abcam, Cambridge, Mass.). Flow cytometry was performed at the Flow Cytometry Core facility of Cedars-Sinai Medical Center, using FACScan (Becton Dickinson, Franklin Lakes, N.J.).
HNK slows cell cycle in breast cancer cell lines. The effects of HNK (10 μM or 30 μM HNK for 24 hours) on cell cycle were evaluated in MCF-7 and MDA-MB-231 cells. These doses of HNK are less than the LC50 for both cell lines. […] Expression of proteins involved in G1 cell-cycle regulation (massgue) was examined in MDA-MB-231 cells using Western analysis.

[6] = system: collagen induced arthritis (CIA); assay: collagen induced arthritis (CIA); format: in vivo, C57Bl/6 and LMP1 transgenic mice; conditions: 3 mg/mouse/day i.p. from day 21 post-immunization
Description: Female mice expressing the mCD40-LMP1 transgene (on a CD40−/− background) were bred in our transgenic mouse facility. Mice were either left naïve, immunized in the tail s.c. with […] Type II Chicken Collagen (Sigma) dissolved in 10 mM acetic acid and emulsified in IFA (Sigma) containing 5 mg/ml H37 RA heat-killed mycobacteria (Difco) (CFA), or immunized with 10 mM acetic acid emulsified in CFA. Some of the mice were injected i.p. with 3 mg/mouse/day honokiol suspended in 20% Intralipid, starting at day 21 post-immunization.

For `C=CCc1ccc(O)c(-c2ccc(O)c(CC=C)c2)c1` [HNK, Honokiol], the “cleavage of caspases and PARP” value ([1]; 12 and 24 h) was “Cleavage of caspases 7, 8, 9 and PARP were induced”, the “release of AIF” value ([1]; 24 h) was “induced release of mitochondrial pro-apoptotic protein AIF to cytosol” and the “Bortezomib-induced up-regulation of Hsp27, p-Hsp27 and Hsp70” value ([2]; 8 h, Western blotting) was “significantly blocked”. The “cytotoxicity and apoptosis of combined treatment with bortezomib” value ([2]; HNK and bortezomib, 48 h) was “enhanced the cytotoxicity and induction of apoptosis compared to each drug alone”, the “inhibition of endothelial proliferation with or without TRAIL antibody” value [3] was “TRAIL-dependent” and the “glucose uptake by insulin” value [4] was “potentiates glucose uptake by insulin”. For the same molecule, the “cells in S-phase” value ([5]; MCF-7, 10 μM) was 20%, the “cells in S-phase” value ([5]; MCF-7, 30 μM) was 20% and the “collagen induced arthritis (CIA) pathology” value [6] was “stablizes collagen induced arthritis (CIA) pathology”.
